# Test results reported in patent US9266835B2, “Quinoline derivatives useful as CB-1 inverse agonists” (JANSSEN PHARMACEUTICA NV, priority 2014, dated 2016).
# Experiment: Chronic DIO Mouse, second study (food intake, body weight, insulin tolerance test, glucose tolerance test, plasma insulin, fed blood glucose)
# Format: in vivo
# Details: DIO mice
# Experimental: Male 14-20-week old diet-induced obese mice were ordered from Taconic. Mice were started on a 60% fat diet (D12492, Research Diets, New Brunswick, N.J.) at 6 weeks of age. Mice were single-housed.
# Test compounds were formulated in 10% PEG400 and 10% solutol. Test compounds were administered by oral gavage (5 ml kg^−1).
# The test compound was formulated in 10% PEG400 and 10% solutol. DIO mice received vehicle, test compound (@ 1, 3 and 10 mg/kg) daily for 26 days. At the end of the experiment, the mice were euthanized and blood and tissues were collected.
# Body weight and food weight (food intake) were monitored daily for days 1-5 and twice weekly thereafter. Fed blood glucose was measured weekly.
# An insulin tolerance test (0.5 U/kg Humulin, ip) was performed on day 19 after a 4 hour food removal. Blood glucose was measured at 0, 15, 30, 60 and 120 minutes after insulin. […] Blood glucose was measured at 0, 30, 60 and 120 minutes after glucose challenge.
# Blood glucose was measured from the tail vein with a Lifescan glucometer. Plasma insulin was measured with an ELISA or HTRF kit (Cisbio). Plasma parameters were measured with an Olympus clinical chemistry analyzer.
# In a second study, Compound #44 was tested according to the procedure as described above, with results as listed in Tables BIO-5A through 5G, below.
structure (smiles),measurement,setting,value
"O=c1cc(NC2CCN(S(=O)(=O)C(F)(F)F)CC2)c2cc(C(c3ccc(Cl)cc3)c3ccc(Cl)cc3)ccc2[nH]1 [Compound #44, 6-(bis(4-chlorophenyl)methyl)-4-(1-(trifluoromethylsulfonyl)piperidin-4-ylamino)quinolin-2(1H)-one]","Insulin Tolerance Test, Blood Glucose AUC",0.3 mg/kg,20233.13 mg·min/dL
same,Intraperitoneal Glucose Tolerance Test Blood Glucose AUC,0.3 mg/kg,21550.00 mg·min/dL
same,Plasma Insulin (Std Err),0.3 mg/kg,3.89 (0.31) ng/mL
same,Intraperitoneal Glucose Tolerance Test Mean Blood Glucose,"0.3 mg/kg, 0 min after glucose",155.44 mg/dL
same,"Insulin Tolerance Test, Mean Blood Glucose","0.3 mg/kg, 0 min after insulin",185.00 mg/dL
same,"Insulin Tolerance Test, Mean Blood Glucose","0.3 mg/kg, 15 min after insulin",172.38 mg/dL
same,Intraperitoneal Glucose Tolerance Test Mean Blood Glucose,"0.3 mg/kg, 30 min after glucose",204.33 mg/dL
same,"Insulin Tolerance Test, Mean Blood Glucose","0.3 mg/kg, 30 min after insulin",164.13 mg/dL
same,Intraperitoneal Glucose Tolerance Test Mean Blood Glucose,"0.3 mg/kg, 60 min after glucose",187.67 mg/dL
same,"Insulin Tolerance Test, Mean Blood Glucose","0.3 mg/kg, 60 min after insulin",169.38 mg/dL
same,Intraperitoneal Glucose Tolerance Test Mean Blood Glucose,"0.3 mg/kg, 120 min after glucose",154.78 mg/dL
same,"Insulin Tolerance Test, Mean Blood Glucose","0.3 mg/kg, 120 min after insulin",165.13 mg/dL
same,Fed Blood Glucose (Std Err),"0.3 mg/kg, Day 0",165.4 (8.16) mg/dL
same,Mean Body Weight,"0.3 mg/kg, Day 1",40.78 Grams
same,Mean Body Weight,"0.3 mg/kg, Day 2",40.87 Grams
same,Mean Daily Food Intake,"0.3 mg/kg, Day 2",2.51 Grams
same,Mean Body Weight,"0.3 mg/kg, Day 3",40.77 Grams
same,Mean Daily Food Intake,"0.3 mg/kg, Day 3",2.92 Grams
same,Mean Body Weight,"0.3 mg/kg, Day 4",40.33 Grams
same,Mean Daily Food Intake,"0.3 mg/kg, Day 4",2.76 Grams
same,Mean Body Weight,"0.3 mg/kg, Day 5",40.53 Grams
same,Mean Daily Food Intake,"0.3 mg/kg, Day 5",2.64 Grams
same,Mean Body Weight,"0.3 mg/kg, Day 8",40.87 Grams
same,Mean Daily Food Intake,"0.3 mg/kg, Day 8",2.80 Grams
same,Mean Body Weight,"0.3 mg/kg, Day 10",41.06 Grams
same,Mean Daily Food Intake,"0.3 mg/kg, Day 10",2.81 Grams
same,Mean Body Weight,"0.3 mg/kg, Day 11",41.61 Grams
same,Mean Daily Food Intake,"0.3 mg/kg, Day 11",2.68 Grams
same,Fed Blood Glucose (Std Err),"0.3 mg/kg, Day 18",161.22 (6.29) mg/dL
same,"Insulin Tolerance Test, Blood Glucose AUC",1 mg/kg,21698.33 mg·min/dL
same,Intraperitoneal Glucose Tolerance Test Blood Glucose AUC,1 mg/kg,22102.50 mg·min/dL
same,Plasma Insulin (Std Err),1 mg/kg,3.12 (0.64) ng/mL
same,Intraperitoneal Glucose Tolerance Test Mean Blood Glucose,"1 mg/kg, 0 min after glucose",156.60 mg/dL
same,"Insulin Tolerance Test, Mean Blood Glucose","1 mg/kg, 0 min after insulin",181.70 mg/dL
same,"Insulin Tolerance Test, Mean Blood Glucose","1 mg/kg, 15 min after insulin",193.89 mg/dL
same,Intraperitoneal Glucose Tolerance Test Mean Blood Glucose,"1 mg/kg, 30 min after glucose",225.20 mg/dL
same,"Insulin Tolerance Test, Mean Blood Glucose","1 mg/kg, 30 min after insulin",170.56 mg/dL
same,Intraperitoneal Glucose Tolerance Test Mean Blood Glucose,"1 mg/kg, 60 min after glucose",185.50 mg/dL
same,"Insulin Tolerance Test, Mean Blood Glucose","1 mg/kg, 60 min after insulin",182.78 mg/dL
same,Intraperitoneal Glucose Tolerance Test Mean Blood Glucose,"1 mg/kg, 120 min after glucose",155.00 mg/dL
same,"Insulin Tolerance Test, Mean Blood Glucose","1 mg/kg, 120 min after insulin",179.40 mg/dL
same,Fed Blood Glucose (Std Err),"1 mg/kg, Day 0",170.80 (5.99) mg/dL
same,Mean Body Weight,"1 mg/kg, Day 1",40.60 Grams
same,Mean Body Weight,"1 mg/kg, Day 2",40.78 Grams
same,Mean Daily Food Intake,"1 mg/kg, Day 2",2.84 Grams
same,Mean Body Weight,"1 mg/kg, Day 3",40.85 Grams
same,Mean Daily Food Intake,"1 mg/kg, Day 3",2.79 Grams
same,Mean Body Weight,"1 mg/kg, Day 4",40.36 Grams
same,Mean Daily Food Intake,"1 mg/kg, Day 4",2.45 Grams
same,Mean Body Weight,"1 mg/kg, Day 5",40.42 Grams
same,Mean Daily Food Intake,"1 mg/kg, Day 5",2.49 Grams
same,Mean Body Weight,"1 mg/kg, Day 8",40.16 Grams
same,Mean Daily Food Intake,"1 mg/kg, Day 8",2.63 Grams
same,Mean Body Weight,"1 mg/kg, Day 10",40.73 Grams
same,Mean Daily Food Intake,"1 mg/kg, Day 10",2.67 Grams
same,Mean Body Weight,"1 mg/kg, Day 11",40.74 Grams
same,Mean Daily Food Intake,"1 mg/kg, Day 11",2.57 Grams
same,Fed Blood Glucose (Std Err),"1 mg/kg, Day 18",151.20 (6.14) mg/dL
same,"Insulin Tolerance Test, Blood Glucose AUC",3 mg/kg,19435.83 mg·min/dL
same,Intraperitoneal Glucose Tolerance Test Blood Glucose AUC,3 mg/kg,20854.50 mg·min/dL
same,Plasma Insulin (Std Err),3 mg/kg,1.74 (0.14) ng/mL
same,Intraperitoneal Glucose Tolerance Test Mean Blood Glucose,"3 mg/kg, 0 min after glucose",141.30 mg/dL
same,"Insulin Tolerance Test, Mean Blood Glucose","3 mg/kg, 0 min after insulin",161.10 mg/dL
same,"Insulin Tolerance Test, Mean Blood Glucose","3 mg/kg, 15 min after insulin",179.67 mg/dL
same,Intraperitoneal Glucose Tolerance Test Mean Blood Glucose,"3 mg/kg, 30 min after glucose",224.30 mg/dL
same,"Insulin Tolerance Test, Mean Blood Glucose","3 mg/kg, 30 min after insulin",156.33 mg/dL
same,Intraperitoneal Glucose Tolerance Test Mean Blood Glucose,"3 mg/kg, 60 min after glucose",174.20 mg/dL
same,"Insulin Tolerance Test, Mean Blood Glucose","3 mg/kg, 60 min after insulin",167.22 mg/dL
same,Intraperitoneal Glucose Tolerance Test Mean Blood Glucose,"3 mg/kg, 120 min after glucose",138.90 mg/dL
same,"Insulin Tolerance Test, Mean Blood Glucose","3 mg/kg, 120 min after insulin",159.78 mg/dL
same,Fed Blood Glucose (Std Err),"3 mg/kg, Day 0",161.8 (6.57) mg/dL
same,Mean Body Weight,"3 mg/kg, Day 1",40.54 Grams
same,Mean Body Weight,"3 mg/kg, Day 2",40.47 Grams
same,Mean Daily Food Intake,"3 mg/kg, Day 2",2.50 Grams
same,Mean Body Weight,"3 mg/kg, Day 3",40.24 Grams
same,Mean Daily Food Intake,"3 mg/kg, Day 3",2.41 Grams
same,Mean Body Weight,"3 mg/kg, Day 4",39.39 Grams
same,Mean Daily Food Intake,"3 mg/kg, Day 4",2.02 Grams
same,Mean Body Weight,"3 mg/kg, Day 5",39.11 Grams
same,Mean Daily Food Intake,"3 mg/kg, Day 5",2.02 Grams
same,Mean Body Weight,"3 mg/kg, Day 8",38.59 Grams
same,Mean Daily Food Intake,"3 mg/kg, Day 8",2.13 Grams
same,Mean Body Weight,"3 mg/kg, Day 10",38.48 Grams
same,Mean Daily Food Intake,"3 mg/kg, Day 10",2.57 Grams
same,Mean Body Weight,"3 mg/kg, Day 11",38.13 Grams
same,Mean Daily Food Intake,"3 mg/kg, Day 11",2.29 Grams
same,Fed Blood Glucose (Std Err),"3 mg/kg, Day 18",142.60 (4.44) mg/dL
same,"Insulin Tolerance Test, Blood Glucose AUC",10 mg/kg,16134.75 mg·min/dL
same,Intraperitoneal Glucose Tolerance Test Blood Glucose AUC,10 mg/kg,20820.00 mg·min/dL
same,Plasma Insulin (Std Err),10 mg/kg,1.64 (0.32) ng/mL
same,Intraperitoneal Glucose Tolerance Test Mean Blood Glucose,"10 mg/kg, 0 min after glucose",149.00 mg/dL
same,"Insulin Tolerance Test, Mean Blood Glucose","10 mg/kg, 0 min after insulin",161.10 mg/dL
same,"Insulin Tolerance Test, Mean Blood Glucose","10 mg/kg, 15 min after insulin",143.90 mg/dL
same,Intraperitoneal Glucose Tolerance Test Mean Blood Glucose,"10 mg/kg, 30 min after glucose",218.50 mg/dL
same,"Insulin Tolerance Test, Mean Blood Glucose","10 mg/kg, 30 min after insulin",133.60 mg/dL
same,Intraperitoneal Glucose Tolerance Test Mean Blood Glucose,"10 mg/kg, 60 min after glucose",169.60 mg/dL
same,"Insulin Tolerance Test, Mean Blood Glucose","10 mg/kg, 60 min after insulin",126.20 mg/dL
same,Intraperitoneal Glucose Tolerance Test Mean Blood Glucose,"10 mg/kg, 120 min after glucose",146.60 mg/dL
same,"Insulin Tolerance Test, Mean Blood Glucose","10 mg/kg, 120 min after insulin",136.10 mg/dL
same,Fed Blood Glucose (Std Err),"10 mg/kg, Day 0",167.9 (4.63) mg/dL
same,Mean Body Weight,"10 mg/kg, Day 1",40.51 Grams
same,Mean Body Weight,"10 mg/kg, Day 2",39.87 Grams
same,Mean Daily Food Intake,"10 mg/kg, Day 2",2.07 Grams
same,Mean Body Weight,"10 mg/kg, Day 3",39.16 Grams
same,Mean Daily Food Intake,"10 mg/kg, Day 3",1.63 Grams
same,Mean Body Weight,"10 mg/kg, Day 4",38.04 Grams
same,Mean Daily Food Intake,"10 mg/kg, Day 4",1.48 Grams
same,Mean Body Weight,"10 mg/kg, Day 5",37.5 Grams
same,Mean Daily Food Intake,"10 mg/kg, Day 5",1.38 Grams
same,Mean Body Weight,"10 mg/kg, Day 8",35.69 Grams
same,Mean Daily Food Intake,"10 mg/kg, Day 8",1.64 Grams
same,Mean Body Weight,"10 mg/kg, Day 10",35.08 Grams
same,Mean Daily Food Intake,"10 mg/kg, Day 10",2.08 Grams
same,Mean Body Weight,"10 mg/kg, Day 11",34.63 Grams
same,Mean Daily Food Intake,"10 mg/kg, Day 11",2.12 Grams
same,Fed Blood Glucose (Std Err),"10 mg/kg, Day 18",144.30 (6.47) mg/dL
